{
  "source": "paper PMC9263924",
  "about": "“Mycobacterium tuberculosis Methyltransferase Rv1515c Can Suppress Host Defense Mechanisms by Modulating Immune Functions Utilizing a Multipronged Mechanism” (Frontiers in Molecular Biosciences, 2022)",
  "target": "Rv1515c (Mycobacterium tuberculosis, UniProt P71794)",
  "sequence (P71794 entry or part of it)": "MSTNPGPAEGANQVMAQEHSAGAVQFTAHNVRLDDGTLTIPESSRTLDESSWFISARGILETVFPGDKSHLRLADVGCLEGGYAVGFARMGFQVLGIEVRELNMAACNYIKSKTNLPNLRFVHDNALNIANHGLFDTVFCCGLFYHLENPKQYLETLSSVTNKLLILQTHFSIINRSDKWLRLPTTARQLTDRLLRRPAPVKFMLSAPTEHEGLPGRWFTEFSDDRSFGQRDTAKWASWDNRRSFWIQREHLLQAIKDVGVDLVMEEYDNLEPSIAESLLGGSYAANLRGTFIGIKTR",
  "data": [
    {"smiles": "C[S+](CC[C@H](N)C(=O)O)C[C@H]1O[C@@H](n2cnc3c(N)ncnc32)[C@H](O)[C@@H]1O", "note": "(stereo partly shown) [S-adenosylmethionine]", "values": [
      {"measurement": "EpiQuik DNA MTase kit, 5-methylcytosine antibody detection, absorbance 450 nm", "value": "ability of the Rv1515c to transfer a methyl group from Adomet to cytosine"}
    ]}
  ]
}
